The values below come from patent publication US5120718A, “Candida acid protease inhibiting compounds” (priority 1991, dated 1992).

Structures can show the parent of a compound that is named as a salt. Where a SMILES comes first, the peptide text is derived from it. [ ]: non-standard residue; d: D form. The star is where a group is joined. Sta = CC(C)C[C@H](N)[C@@H](O)CC(=O)O; Isovaleryl = CC(C)CC(=O)*

The target of one assay is T1, Candida albicans acid protease (Candida albicans, UniProt P0DJ06).
T1 construct: endogenous in cells; host or cells: Candida albicans ATCC10231 (proteinase secreted into the culture medium, purified in house)
T1 sequence (P0DJ06 57-398): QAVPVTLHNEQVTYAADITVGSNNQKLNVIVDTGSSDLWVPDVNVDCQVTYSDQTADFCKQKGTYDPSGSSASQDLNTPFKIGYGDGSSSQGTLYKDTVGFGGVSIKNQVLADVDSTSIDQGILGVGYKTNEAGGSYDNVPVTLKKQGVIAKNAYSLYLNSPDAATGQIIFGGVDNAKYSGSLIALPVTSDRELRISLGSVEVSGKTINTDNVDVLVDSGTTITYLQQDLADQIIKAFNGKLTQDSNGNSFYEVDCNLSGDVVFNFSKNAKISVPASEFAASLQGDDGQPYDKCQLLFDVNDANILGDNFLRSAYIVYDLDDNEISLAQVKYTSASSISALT
The experiment in a line: In vitro inhibitor assay, microtiter assay with fluorogenic substrate A78331.
Conditions: not given
In kind it is biochemical, Candida albicans ATCC10231. The method, then:
Isolation and Purification of Candida albican Acid Protease Organism and growth conditions. Candida albicans ATCC10231 was grown overnight in Sabouraud broth (Difco) at 30° C. Cells were centrifuged at 10,000xg for 10 min (4° C.) and the cell pellet washed once with 10 mM phosphate buffered saline (PBS), pH7.0. Washed cells (6×10^6 colony forming units per mL) were grown in yeast nitrogen base without ammonium sulfate or amino acids (Difco), plus 2% glucose and 0.1% casein (nitrogen source) at 37° C.
Proteinase isolation. […] Cells were then harvested at 10,000xg for 20 min (4° C.) and the supernatant filtered through a 0.2μ acetate filter unit (Nalgen). The filtrate was concentrated on an Amicon concentrator (PM30 or YM10 membrane, 75 mm) and 30 mL of the concentrate was loaded onto a Cibacron blue F3GA-6% agarose (Pierce Chem.) column (1.5x44cm) equilibrated with 10 mM sodium citrate, pH 6.5, containing lmM EDTA and 0.02% sodium azide (Ray, T. L., and Payne, C. D. Infection and Immunity 58:508-514, 1990). Bovine serum albumin (BSA) was used as substrate to monitor the column for proteinase activity and to determine total proteolytic units. One BSA proteolytic unit was defined as an optical density (750 nm wavelength) increase of 0.100 under incubation conditions of 37° C. for 60 min (Remold, H., Fasold, H., and Staib, F. Biochimica et Biophysica Acta I67:399-406, 1968). […] Proteinase purity and molecular weight was determined by the Phast-gel (12.5% acrylamide) electrophoresis system (Pharmacia). Protein was determined by the Lowry method (Lowry, O. H., Rosenbrough, N. J., Farr, A. L., and Randall, R. J. Journal of Biological Chemistry 193:263-275, 1951). A fluorogenic substrate, A78331, may also be used to monitor proteinase production and purification. This substrate, DABCYL-Gaba-[…]EDANS (Holzman, T. F., Chung, C. C., Edalji, R., Egan, D. A., Gubbins, E. J., Rueter, A., Howard, G., Yang, L. K., Pederson, T. M., Krafft, G. A., and Wang, G. T. Journal of Protein Chemistry 9:663-672, 1990) contains the fluorescent EDANS group, [5-(2-aminoethyl)-amino]naphthalene-1-sulfonic acid, which is quenched by the DABCYL group, 4-(4-dimethyl-aminophenylazo)benzoic acid, as long as it is part of the molecule (Matayoshi, E. D., Wang, G. T., Krafft, G. A., and Erickson, J. Science 247:954-958, 1990). Proteolysis of this compound by the fungal proteinase releases Thr-EDANS, which when activated at 340 nm fluoresces at 490 nm with the same intensity as equimolar EDANS. Activity is expressed in terms of nmol EDANS released from 32 μM A78331 under incubation conditions of 22° C. for 60 min.
In Vitro Inhibitor Assay Method
Microtiter assay. The assay for inhibitors of C. albicans acid proteinase was done in microtiter trays with the fluorogenic substrate A78331. […] The reaction mixture consisted of 5μL test compound or dimethyl sulfoxide and 45μL of fungal proteinase (0.13 BSA proteolytic units or 0.13 nmol EDANS released) in 50 mM sodium citrate, pH 4.5, which was preincubated at 22° C. for 30 min. The reaction was started with the addition of 50μL fluorogenic substrate in citrate buffer and the incubation was continued at 22° C. for 90 min. The reaction was terminated with 150μL pepstatin (final concentration of 1μM) and 210μL samples were transfered to microfluor plates for fluorescence quantitation in a luminescence spectrophotometer (Perkin-Elmer model LS-50). The excitation wavelength was 340 nm and the emission was monitored at 490 nm (430 nm filter employed). Inhibition was expressed as % change in relative intensity from the dimethyl sulfoxide control group (no inhibitor). IC50's were determined from plots of log dose versus % inhibition from control.
For the molecule `CCCCNC(=O)[C@H](C[C@H](O)[C@H](CC1CCCCC1)NC(=O)[C@H](CCCC)N1CCN(C(=O)N2CCC(OCOC)CC2)[C@@H](Cc2ccccc2)C1=O)C(C)C` [Example 14, 2S-(3S-Benzyl-4-N-(4-methoxymethoxypiperidinyl-carbonyl)-2-keto-piperazin-1-yl)-hexanoic acid Amide of (2R,4,5S) -5-Amino-6-cyclohexyl-4-hydroxy-2-isopropylhexanoyl N-(n-Butyl)amide], the IC50 (usually the concentration at which inhibition is half-maximal) amounted to 4.5 nM.
Still for that read-out and setting: the same measure for `CCCC[C@@H](C(=O)N[C@@H](CC1CCCCC1)[C@@H](O)C[C@@H](C(=O)NCCCN(C)C)C(C)C)N1CCN(C(=O)N2CCN(C)CC2)[C@H](Cc2ccccc2)C1=O` [Example 18, (2S)-2{(3R)-3-Benzyl-4-N-(4-methylpiperazin-1-yl-carbonyl)-2-keto-piperazin-1-yl}-hexanoic acid Amide of (2R,4S,5S)-5-Amino-6-cyclohexyl-4-hydroxy-2-isopropylhexanoyl N-[3-(Dimethylamino)propyl]amide]: 3.8 nM; for `CCCCNC(=O)[C@H](C[C@H](O)[C@H](CC1CCCCC1)NC(=O)[C@H](CCCC)N1CCN(S(=O)(=O)N2CCN(C)CC2)[C@@H](Cc2ccccc2)C1=O)C(C)C` [Example 13]: 2.7 nM.
`CCCCNC(=O)[C@H](C[C@H](O)[C@H](CC1CCCCC1)NC(=O)[C@H](CCCC)N1C[C@@H](Cc2ccccc2)N(S(=O)(=O)c2ccc(C)cc2)CC1=O)C(C)C` [Example 3, (2S)-2-{(3R)-3-Benzyl-4-N-(4-methylbenzene-sulfonyl)-6-keto-piperazin-1-yl}-hexanoic acid Amide of (2R,4S,5S)-5-Amino-6-cyclohexyl-4-hydroxy-2-isopropylhexanoyl N-(n-Butyl)amide] came in with an IC50 of 30.1 nM.
Molecule `CCCC[C@@H](C(=O)N[C@@H](CC1CCCCC1)[C@@H](O)C[C@@H](C(=O)NCCN(C)C)C(C)C)N1CCN(C(=O)N2CCN(C)CC2)[C@H](Cc2ccccc2)C1=O` [Example 17] returned an IC50 of 6.2 nM.
Still for that read-out and setting: the figure for `CCCCNC(=O)[C@H](C[C@H](O)[C@H](CC1CCCCC1)NC(=O)[C@H](CCCC)N1CCN(S(=O)(=O)c2ccc(OC)cc2)[C@H](Cc2ccccc2)C1=O)C(C)C` [Example 5, (2S)-2-{(3R)-3-Benzyl-4-N-(4-methoxybenzene-sulfonyl)-2-keto-piperazin-1-yl)-hexanoic acid Amide of (2R,4S,5S)-5-Amino-6-cyclohexyl-4-hydroxy-2-isopropylhexanoyl N-(n-Butyl)amide] is 13.3 nM; for `CCCC[C@@H](C(=O)N[C@@H](CC1CCCCC1)[C@@H](O)C[C@@H](C(=O)NCCCN1CCOCC1)C(C)C)N1CCN(S(=O)(=O)N2CCN(C)CC2)[C@@H](Cc2ccccc2)C1=O` [Example 15, (2S)-2-{(3S)-3-Benzyl-4-N-(4-methylpiperazin-1-yl-sulfonyl)-2-keto-piperazine-1-yl}-hexanoic acid Amide of (2R,4S,5S)-5-Amino-6-cyclohexyl-4hydroxy-2-isopropylhexanoyl N-[3-(N-Morpholinyl)propyl]amide] it is 3.8 nM.
`CCCC[C@@H](C(=O)N[C@@H](CC1CCCCC1)[C@@H](O)C[C@@H](C(=O)NCCCN1CCOCC1)C(C)C)N1CCN(C(=O)N2CCC(OCOC)CC2)[C@@H](Cc2ccccc2)C1=O` [Example 16, (2S)-2-{(3S)-3-Benzyl-4-N-(4-methoxymethoxypiperidin-1-yl-carbonyl)-2-keto-piperazin-1-yl}-hexanoic acid Amide of (2R, 4S, 5S)-5-Amino-6-cyclohexyl-4-hydroxy-2-isopropylhexanoyl N-[3-(N-Morpholinyl)propyl]amide] displayed an IC50 of 5 nM.
Same read-out and setting: the same measure for `CCCC[C@@H](C(=O)N[C@@H](CC1CCCCC1)[C@@H](O)[C@@H](O)CC(C)C)N1CCN(S(=O)(=O)c2ccc(NC)cc2)[C@H](Cc2ccccc2)C1=O` [Example 11, (2S)-2-{(3R)-3-Benzyl-4-N-(4-(methylamino)benzene-sulfonyl)-2-keto-piperazin-1-yl}-hexanoic acid Amide of (2S,3R,4S)-2-Amino-1-cyclohexyl-3,4-dihydroxyl-6-methylheptane]: 85 nM; for `CCCC[C@@H](C(=O)N[C@@H](CC1CCCCC1)[C@@H](O)C[C@@H](C(=O)NCCCN1CCOCC1)C(C)C)N1CCN(C(=O)N2CCN(C)CC2)[C@@H](Cc2ccccc2)C1=O` [Example 12, (2S)-2-{(3S)-3-Benzyl-4-N-(4-methylpiperazin-1-yl-carbonyl)-2-keto-piperazin-1-yl}-hexanoic acid Amide of (2R,4S,5S)-5-Amino-6-cyclohexyl-4-hydroxy-2-isopropylhexanoyl N-3-(N-Morpholinyl)propyllamide]: 3.8 nM; for `CCCCNC(=O)[C@H](C[C@H](O)[C@H](CC1CCCCC1)NC(=O)[C@H](CCCC)N1CCN(C(=O)N2CCN(C)CC2)[C@H](Cc2ccccc2)C1=O)C(C)C` [Example 1, (2S)-2-((3R)-3-Benzyl-4-N-(4-methylpiperazin-1-yl-carbonyl)-2-keto-piperazin-1-yl}-hexanoic acid Amide of (2R,4S,5S)-5-amino-6-cyclohexyl-4-hydroxy-2-isopropylhexanoyl N-(n-Butyl)amide Hydrochloride]: 1.3 nM.

In the next assay the test system is Candida acid protease.
Test: not given
Particulars: background art; cited from earlier work.
Take `CC(C)C[C@H](NC(=O)[C@@H](NC(=O)N[C@@H](Cc1ccccc1)C(=O)O)[C@@H]1CCN=C(N)N1)C(=O)N[C@H](C=O)Cc1ccccc1` [chymostatin]: the “potency as inhibitor of Candida acid protease (in words)” value is reported as “not very potent inhibitors of the enzyme” and the “specificity (in words)” value was “non-specific”.
Regarding `CC(C)CC(=O)N[C@H](C(=O)N[C@H](C(=O)N[C@@H](CC(C)C)[C@@H](O)CC(=O)N[C@@H](C)C(=O)N[C@@H](CC(C)C)[C@@H](O)CC(=O)O)C(C)C)C(C)C` [Pepstatin A] (Isovaleryl-VV[Sta]A[Sta]-OH), the “potency as inhibitor of Candida acid protease (in words)” value is listed as “not very potent inhibitors of the enzyme” and the “specificity (in words)” value was “non-specific”.
